The source of these data is patent publication US20220396565A1 (Hoffmann-La Roche Inc., priority 2020, published 2022).

Structures can show the parent of a compound that is named as a salt.

The test system of the first assay is Acinetobacter baumannii ATCC17961. Nature of the assay: Antimicrobial susceptibility testing: 90% growth inhibitory concentration (IC90) determination, Iso-Sensitest broth. The assay is classed as cell-based. The note with it: Acinetobacter baumannii, ATCC17961, 90% growth inhibitory concentration, Acinetobacter baumannii ATCC17961, Iso-Sensitest broth; read-out: ATCC 17961 IC90. The method, boiled down:
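Growth at OD600 was monitored every 20 min for 16 h at 35±2 °C, with bacteria inoculated at ~5×10^(5) CFU/ml into Iso-Sensitest medium. Compounds were tested as 10-point twofold dilutions (e.g. 10–0.02 μM final). The 90% inhibitory concentration comes from the log-phase growth.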
Broadly, the IC90 is the concentration needed for an effect of 90%. For `Cc1cc(NC(=O)c2ncc(-c3ccc(OCC#N)c(F)c3F)n2C)ccc1C(=O)N1CCC(C(=O)N2CCO[C@H](CN)C2)CC1` [Example 83, (R)-N-(4-(4-(2-(aminomethyl)morpholine-4-carbonyl)piperidine-1-carbonyl)-3-methylphenyl)-5-(4-(cyanomethoxy)-2,3-difluorophenyl)-1-methyl-1H-imidazole-2-carboxamide 2,2,2-trifluoroacetate], the IC90 came out at 170 nM.
Same read-out and setting: for `Cn1c(-c2ccc(OCC#N)c(F)c2F)cnc1C(=O)Nc1ccc(C(=O)N2CCC(C(=O)N3CC4(CNC4)C3)CC2)c(Cl)c1` [Example 85, N-(4-(4-(2,6-diazaspiro[3.3]heptane-2-carbonyl)piperidine-1-carbonyl)-3-chlorophenyl)-5-(4-(cyanomethoxy)-2,3-difluorophenyl)-1-methyl-1H-imidazole-2-carboxamide 2,2,2-trifluoroacetate] the value was 150 nM; for `Cc1cc(NC(=O)c2ncc(-c3ccc(OCC#N)c(F)c3F)n2C)ccc1C(=O)N1CCC(C(=O)N2CCO[C@@H](CN)C2)CC1` [Example 87, (S)-N-(4-(4-(2-(aminomethyl)morpholine-4-carbonyl)piperidine-1-carbonyl)-3-methylphenyl)-5-(4-(cyanomethoxy)-2,3-difluorophenyl)-1-methyl-1H-imidazole-2-carboxamide 2,2,2-trifluoroacetate], 120 nM; for `Cn1c(-c2ccc(OCF)c(F)c2F)cnc1C(=O)Nc1ccc(C(=O)N2CCC(C(=O)NC3CCNCC3)CC2)c(Cl)c1` [Example 89, 1-(2-chloro-4-(5-(2,3-difluoro-4-(fluoromethoxy)phenyl)-1-methyl-1H-imidazole-2-carboxamido)benzoyl)-N-(piperidin-4-yl)piperidine-4-carboxamide 2,2,2-trifluoroacetate], 50 nM.
Same read-out and setting: to `Cn1c(-c2ccc(OCF)c(F)c2F)cnc1C(=O)Nc1ccc(C(=O)N2CCC(C(=O)N[C@@H]3CCNC3)CC2)c(Cl)c1` [Example 90, (R)-1-(2-chloro-4-(5-(2,3-difluoro-4-(fluoromethoxy)phenyl)-1-methyl-1H-imidazole-2-carboxamido)benzoyl)-N-(pyrrolidin-3-yl)piperidine-4-carboxamide 2,2,2-trifluoroacetate] belongs 40 nM; to `Cn1c(-c2ccc(OC(F)F)c(F)c2F)cnc1C(=O)Nc1ccc(C(=O)N2CCC(C(=O)N[C@@H]3CCNC3)CC2)c(Cl)c1` [Example 91, (R)-1-(2-chloro-4-(5-(4-(difluoromethoxy)-2,3-difluorophenyl)-1-methyl-1H-imidazole-2-carboxamido)benzoyl)-N-(pyrrolidin-3-yl)piperidine-4-carboxamide formate], 40 nM.
For the molecule `Cn1c(-c2ccc(OC(F)F)c(F)c2F)cnc1C(=O)Nc1ccc(C(=O)N2CCC(C(=O)NC3CCNCC3)CC2)c(Cl)c1` [Example 94, 1-(2-chloro-4-(5-(4-(difluoromethoxy)-2,3-difluorophenyl)-1-methyl-1H-imidazole-2-carboxamido)benzoyl)-N-(piperidin-4-yl)piperidine-4-carboxamide formate], the concentration for an effect of 90% (IC90) turned out to be 40 nM.
Same read-out and setting: to `Cn1c(-c2ccc(OC(F)F)c(F)c2F)cnc1C(=O)Nc1ccc(C(=O)N2CCC(C(=O)N[C@H]3CCNC3)CC2)c(Cl)c1` [Example 95, (S)-1-(2-chloro-4-(5-(4-(difluoromethoxy)-2,3-difluorophenyl)-1-methyl-1H-imidazole-2-carboxamido)benzoyl)-N-(pyrrolidin-3-yl)piperidine-4-carboxamide formate] belongs 50 nM.
Take `Cn1c(-c2ccc(OC(F)F)c(F)c2F)cnc1C(=O)Nc1ccc(C(=O)N2CCC(C(=O)N[C@@H]3CNC[C@H]3O)CC2)c(Cl)c1` [Example 96, 1-(2-chloro-4-(5-(4-(difluoromethoxy)-2,3-difluorophenyl)-1-methyl-1H-imidazole-2-carboxamido)benzoyl)-N-((3R,4R)-4-hydroxypyrrolidin-3-yl)piperidine-4-carboxamide formate]: the IC90 amounted to 40 nM.
Same read-out and setting: for `CCc1cc(NC(=O)c2ncc(-c3ccc(OC)c(F)c3F)n2C)ccc1C(=O)N1CCC(C(=O)N2CCN(CCCN(C)C)CC2)CC1` [Example 97, 5-(2,3-difluoro-4-methoxy-phenyl)-N-[4-[4-[4-[3-(dimethylamino)propyl]piperazine-1-carbonyl]piperidine-1-carbonyl]-3-ethyl-phenyl]-1-methyl-imidazole-2-carboxamide] the value was 260 nM; for `CCc1cc(NC(=O)c2ncc(-c3ccc(OC)c(F)c3F)n2C)ccc1C(=O)N1CCC(C(=O)NCCOCCN(C)C)CC1` [Example 99, 1-[4-[[5-(2,3-difluoro-4-methoxy-phenyl)-1-methyl-imidazole-2-carbonyl]amino]-2-ethyl-benzoyl]-N-[2-[2-(dimethylamino)ethoxy]ethyl] piperidine-4-carboxamid], 480 nM; for `CCc1cc(NC(=O)c2ncc(-c3ccc(OC)c(F)c3F)n2C)ccc1C(=O)N1CCC(C(=O)NCCN)CC1` [Example 100, N-(2-aminoethyl)-1-[4-[[5-(2,3-difluoro-4-methoxy-phenyl)-1-methyl-imidazole-2-carbonyl]amino]-2-ethyl-benzoyl]piperidine-4-carboxamide], 340 nM.
As to `COc1ccc(-c2cnc(C(=O)Nc3ccc(C(=O)N4CCC(NC(=O)CCN(C)C)CC4)c(Cl)c3)n2C)c(F)c1F` [Example 101, N-[3-chloro-4-[4-[3-(dimethylamino)propanoylamino]piperidine-1-carbonyl]phenyl]-5-(2,3-difluoro-4-methoxy-phenyl)-1-methyl-imidazole-2-carboxamide formate], the IC90 was found to be 50 nM.
Still for that read-out and setting: for `COc1ccc(-c2cnc(C(=O)Nc3ccc(C(=O)N4CCC(NC(=O)[C@@H]5C[C@@H](O)CN5)CC4)c(Cl)c3)n2C)c(F)c1F` [Example 102, N-[3-chloro-4-[4-[[(2S,4R)-4-hydroxypyrrolidine-2-carbonyl]amino]piperidine-1-carbonyl]phenyl]-5-(2,3-difluoro-4-methoxy-phenyl)-1-methyl-imidazole-2-carboxamide] the value was 90 nM.
On the same count and under the same terms, for `COc1ccc(-c2cnc(C(=O)Nc3ccc(C(=O)N4CCC(NC(=O)CCN)CC4)c(Cl)c3)n2C)c(F)c1F` [Example 103, N-[4-[4-(3-aminopropanoylamino)piperidine-1-carbonyl]-3-chloro-phenyl]-5-(2,3-difluoro-4-methoxy-phenyl)-1-methyl-imidazole-2-carboxamide formate] the value was 60 nM.
The same measure, in the same setting: for `COc1ccc(-c2cnc(C(=O)Nc3ccc(C(=O)N4CCN(C(=O)[C@H]5CC[C@@H](N)C5)CC4)c(Cl)c3)n2C)c(F)c1F` [Example 108, N-[4-[4-[(1S,3R)-3-aminocyclopentane-carbonyl]piperazine-1-carbonyl]-3-chloro-phenyl]-5-(2,3-difluoro-4-methoxy-phenyl)-1-methyl-imidazole-2-carboxamide; formate] the value was 40 nM; for `COc1ccc(-c2cnc(C(=O)Nc3ccc(C(=O)N4CCC(NC(=O)[C@@H]5CCNC5)C4)c(Cl)c3)n2C)c(F)c1F` (stereo partly drawn) [Example 109, N-[3-chloro-4-[3-[[(3R)-pyrrolidine-3-carbonyl]amino]pyrrolidine-1-carbonyl]phenyl]-5-(2,3-difluoro-4-methoxy-phenyl)-1-methyl-imidazole-2-carboxamide formate], 150 nM.

Staying with this assay, now noted: Acinetobacter baumannii, ATCC17961, read-out: ATCC 17961 IC90.
Turning to `CNCCNC(=O)C1CCN(C(=O)c2ccc(NC(=O)c3ncc(-c4ccc(OCC#N)c(F)c4F)n3C)cc2Cl)CC1` [Example 82, 1-(2-chloro-4-(5-(4-(cyanomethoxy)-2,3-difluorophenyl)-1-methyl-1H-imidazole-2-carboxamido)benzoyl)-N-(2-(methylamino)ethyl) piperidine-4-carboxamide formate], the concentration for an effect of 90% (IC90) was 70 nM.
On the same count and under the same terms, to `Cn1c(-c2ccc(OCC#N)c(F)c2F)cnc1C(=O)Nc1ccc(C(=O)N2CCC(C(=O)NCC(O)CN)CC2)c(Cl)c1` (centres unmarked) [Example 84, N-(3-amino-2-hydroxypropyl)-1-(2-chloro-4-(5-(4-(cyanomethoxy)-2,3-difluorophenyl)-1-methyl-1H-imidazole-2-carboxamido)benzoyl) piperidine-4-carboxamide 2,2,2-trifluoroacetate] belongs 90 nM.
On the same count and under the same terms, to `Cn1c(-c2ccc(OCC#N)c(F)c2F)cnc1C(=O)Nc1ccc(C(=O)N2CCC(C(=O)N3CCN[C@H](CO)C3)CC2)c(Cl)c1` [Example 86, (S)-N-(3-ehloro-4-(4-(3-(hydroxymethyl)piperazine-1-carbonyl)piperidine-1-carbonyl)phenyl)-5-(4-(cyanomethoxy)-2,3-difluorophenyl)-1-methyl-1H-imidazole-2-carboxamide 2,2,2-trifluoroacetate] belongs 100 nM.
Still for that read-out and setting: for `Cn1c(-c2ccc(OCF)c(F)c2F)cnc1C(=O)Nc1ccc(C(=O)N2CCC(C(=O)NCCN)CC2)c(Cl)c1` [Example 88, N-(2-aminoethyl)-1-(2-chloro-4-(5-(2,3-difluoro-4-(fluoromethoxy)phenyl)-1-methyl-1H-imidazole-2-carboxamido)benzoyl) piperidine-4-carboxamide 2,2,2-trifluoroacetate] the value was 50 nM.
Regarding `Cn1c(-c2ccc(OC(F)F)c(F)c2F)cnc1C(=O)Nc1ccc(C(=O)N2CCC(C(=O)NCCN)CC2)c(Cl)c1` [Example 92, N-(2-aminoethyl)-1-(2-chloro-4-(5-(4-(difluoromethoxy)-2,3-difluorophenyl)-1-methyl-1H-imidazole-2-carboxamido)benzoyl) piperidine-4-carboxamide formate], the IC90 turned out to be 60 nM.
The same measure, in the same setting: for `Cn1c(-c2ccc(OC(F)F)c(F)c2F)cnc1C(=O)Nc1ccc(C(=O)N2CCC(C(=O)N[C@H]3CNC[C@@H]3O)CC2)c(Cl)c1` [Example 93, 1-(2-chloro-4-(5-(4-(difluoromethoxy)-2,3-difluorophenyl)-1-methyl-1H-imidazole-2-carboxamido)benzoyl)-N-((3S,4S)-4-hydroxypyrrolidin-3-yl)piperidine-4-carboxamide formate] the value was 40 nM.
